The numbers were not newly measured in patent US20250188545A1, “METHODS FOR PREDICTING RESPONSIVENESS OF LYMPHOMA TO DRUG AND METHODS FOR TREATING LYMPHOMA” (Celgene Corporation, priority 2022, published 2025), which cites them from elsewhere.

The subject of this series is high-risk ABC DLBCL population. Conditions: PHOENIX (ibrutinib), ROBUST (lenalidomide).

In the case of `Nc1cccc2c1CN(C1CCC(=O)NC1=O)C2=O` (stereo not shown) [lenalidomide], the “activity combined with R-CHOP compared to R-CHOP alone” value is listed as “did not demonstrate greater activities”.
